Measured values reported in patent publication US11344510B2, “Arylcyclohexylamine derivatives and their use in the treatment of psychiatric disorders” (Gilgamesh Pharmaceuticals, Inc., priority 2019, dated 2022).
pIC50, pKi: −log10 of the molar value. “Also recorded” adds a separate entry of the source. Read-outs that look alike come from different tables or passages of the source.

What was measured:
[1] = HLM stability (Low Activity); assay type: in vitro ADME; conditions: both sexes, human, liver microsomes, pH 7.4, Condition 1 (Low Activity), 0.42 mg protein/mL
Procedure: For some of the compounds, stability was tested under two microsomal incubation conditions, one with normal enzymatic activity (low activity) and one with higher enzymatic loading, longer incubation time, and lower compound concentration (high activity) intended to increase metabolic lability.
HLM Stability (Low Activity). Pooled HLM from adult male and female donors (XenoTech H0630) were used. Microsomal incubations were carried out in 96-well plates in 5 aliquots of 40 μL, each (one for each time point). Liver microsomal incubation medium consisted of PBS (100 mM, pH 7.4), MgCl2 (3.3 mM), NADPH (3 mM), glucose-6-phosphate (5.3 mM), and glucose-6-phosphate dehydrogenase (0.67 units/mL), with 0.42 mg of liver microsomal protein per mL. Control incubations were performed by replacing the NADPH-cofactor system with PBS. Test compounds (2 μM, final solvent concentration 1.6%) were incubated with microsomes at 37° C., shaking at 100 rpm. Incubations were performed in duplicate. Five time points over 40 minutes were analyzed. The reactions were stopped by adding 12 volumes of 90% acetonitrile-water to incubation aliquots, followed by protein sedimentation by centrifugation at 5500 rpm for 3 minutes. Supernatants were analyzed for parent compound remaining using a fit-for-purpose liquid chromatography-tandem mass spectrometry (LC-MS/MS) method, with authentic samples of each analyte used for identity confirmation.
Data Analysis. The elimination constant (kel), half-life (t1/2) and intrinsic clearance (Clint) were determined in a plot of […] versus time, using linear regression analysis.

[2] = Oral bioavailability in mice, Method A; assay type: in vivo; conditions: CD-1 mice; for F: 10 mg/kg; for half-life / Cmax / AUC(0-inf): male, mouse
Procedure: Animals. Male CD-1 mice were used in these studies Animals were randomly assigned to treatment groups and were fasted for 4 h before dosing.
Drugs. Test compounds were dissolved in normal saline (ketamine) or de-ionized water (other compounds) and administered intravenously (iv) or orally (po) at a dose of 10 mg/kg (calculated based on freebase) and at a volume of 5 mL/kg body weight. Compounds were tested as the racemates (indicated by “rac” nomenclature) or pure enantiomers (indicated by “R” or “S” nomenclature).
Sample Collection and Bioanalysis. Blood samples were collected under 2,2,2-tribromoethanol anesthesia (150 mg/kg, ip) from the orbital sinus at 0.083, 0.25, 0.5, 1, 2, 4, 8 and 24 h (4 animals per time point) into microcontainers containing K2EDTA Immediately after collection of blood, mice were euthanized by cervical dislocation and brain samples were collected at the same time points. All samples were immediately processed, flash-frozen, and stored at −70° C. until subsequent analysis. Plasma samples were separated by centrifugation of whole blood and aliquots (50 μL) were mixed with 200 μL of internal standard solution (400 ng/mL in 1:1 v/v CH3CN:MeOH). After mixing by pipetting and centrifuging for 4 min at 6000 rpm, 0.5 μL of each supernatant was analyzed for drug using a fit-for-purpose liquid chromatography-tandem mass spectrometry (LC-MS/MS) method, with authentic samples of each analyte used for calibration and identification. Brain samples (weight 100 mg±1 mg) were dispersed in 500 μL, of internal standard solution (400 ng/mL in 4:1 v/v MeOH:water) using zirconium oxide beads (115 mg±5 mg) in The Bullet Blender® homogenizer for 30 s at speed 8. After homogenization, the samples were centrifuged for 4 min at 14,000 rpm and 0.5 μL of each supernatant was analyzed for drug using a fit-for-purpose LC-MS/MS method, with authentic samples of each analyte used for calibration and identification.
Data Analysis. The drug concentrations of samples below the lower limit of quantitation (LLOQ) were designated as zero. Pharmacokinetic data analysis was performed using noncompartmental, bolus injection or extravascular input analysis models in WinNonlin 5.2 (PharSight). Data points below LLOQ were presented as missing to improve validity of t112 calculations.

mice (forced swim test) = assay: Forced swim test in mice, 30-minute pre-treatment; assay type: in vivo, Swiss Webster mice; conditions: s.c., 30 minutes before test, relative to vehicle
Procedure: Animals. Male Swiss Webster mice, aged 4-5 weeks (body weight 25-30 g, Envigo) were used in the experiments Animals were housed in groups of 4-5 under controlled temperatures and 12-hour light/dark cycles, with ad libitum food (Teklad 7001 rodent diet) and water. These studies were carried out in strict accordance with the recommendations in the Guide for the Care and Use of Laboratory Animals of the National Institutes of Health. All efforts were made to minimize suffering.
Drugs and Drug Administration. Imipramine hydrochloride was administered intraperitoneally (i.p.) at a dose of 30 mg/kg. Other compounds were tested as the racemates (indicated by “rac” nomenclature) and were administered subcutaneously (s.c.) as the hydrochloride salts. Normal saline was used as the vehicle and all compounds were administered at a volume of 10 mL/kg, 30 minutes before behavioral testing.
Forced Swim Test (FST). Group size was n=10 per treatment Animals were acclimated to the testing room 30 minutes prior to behavioral testing. Mice were placed individually in a cylinder of water measuring 5 inches wide by 10 inches tall and maintained at 24-25° C. The activity of each mouse was recorded for 6 minutes using Noldus Ethovision tracking software, with periods of inactivity being automatically quantified.
Statistical Analysis. The data points shown are the mean±standard error of the mean (SEM). Analysis was performed using GraphPad Prism 6. Indicated statistical comparisons represent the results of unpaired, two-tailed t tests relative to vehicle (not corrected for multiple comparisons).

[3] = HLM stability (High Activity); assay type: in vitro ADME; conditions: both sexes, human, liver microsomes, pH 7.4, Condition 2 (High Activity), 1.0 mg protein/mL
In short: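 Pooled male and female human liver microsomes, 1.0 mg protein/mL, in 100 mM PBS pH 7.4 with NADPH-regenerating system; compound 1 μM at 37° C, five time points over 60 min. Parent remaining by LC-MS/MS; kel, t1/2 and Clint from linear regression of ln(AUC) versus time.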

[4] = target: MK-801 binding site of the N-methyl-D-aspartate receptor (NMDAR); assay: NMDAR radioligand binding with [3H]MK-801, Method A; set-up: species or system Wistar rat; conditions: MK-801 site, Method A, Wistar rat brain (minus cerebellum), 5.0 nM [3H]MK-801; read-out: NMDAR Ki ± SEM
Procedure: Radioligand Binding—Method A. Affinity of the test compounds for NMDAR was determined in radioligand binding experiments with [^3H]MK-801 by Eurofins Panlabs, Inc., using methods adapted from the literature (Javitt et al. 1987; Reynolds et al. 1989) and under the conditions described in Table 12.

[5] = target: T1, vesicular monoamine transporter 2 (VMAT2) (Homo sapiens, UniProt Q05940); assay: Fluorescent substrate uptake inhibition, VMAT2; assay type: cell-based; conditions: 10 μM, transfected cells
T1 construct: expressed in transfected cells
T1 sequence (Q05940 whole entry, species assumed): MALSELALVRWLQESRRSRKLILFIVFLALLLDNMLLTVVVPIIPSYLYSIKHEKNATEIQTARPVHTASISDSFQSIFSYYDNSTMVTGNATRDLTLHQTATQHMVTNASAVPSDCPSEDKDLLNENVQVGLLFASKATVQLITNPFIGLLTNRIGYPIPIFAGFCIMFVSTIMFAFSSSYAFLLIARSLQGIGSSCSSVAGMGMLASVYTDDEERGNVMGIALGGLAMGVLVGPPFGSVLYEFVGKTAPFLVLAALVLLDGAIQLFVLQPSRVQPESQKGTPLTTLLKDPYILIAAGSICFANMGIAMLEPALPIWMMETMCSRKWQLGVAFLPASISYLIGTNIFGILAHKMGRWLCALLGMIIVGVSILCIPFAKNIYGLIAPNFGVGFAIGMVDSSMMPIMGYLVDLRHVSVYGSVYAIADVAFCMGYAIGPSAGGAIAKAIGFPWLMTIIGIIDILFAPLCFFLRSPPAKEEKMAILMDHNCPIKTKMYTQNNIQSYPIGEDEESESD

[6] = HLM stability (Low Activity, Alternative Method); assay type: in vitro ADME; conditions: both sexes, human, liver microsomes, pH 7.4, Condition 1 column, values marked *: Low Activity, 0.50 mg protein/mL
In short: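 Pooled male and female human liver microsomes (0.50 mg/mL) in 100 mM PBS pH 7.4 with 1 mM MgCl2 and 1 mM NADPH, compound 1 μM (1.0% solvent), 37° C with shaking, six time points over 60 min. Parent remaining measured by LC-MS/MS; kel, t1/2 and Clint from linear regression of ln(AUC) versus time.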

[7] = target: T2, dopamine transporter (DAT) (Homo sapiens, UniProt Q01959); assay: Fluorescent substrate uptake inhibition, DAT; assay type: cell-based
T2 construct: expressed in transfected cells; host or cells: CHO (uptake)
T2 sequence (Q01959 whole entry, species assumed): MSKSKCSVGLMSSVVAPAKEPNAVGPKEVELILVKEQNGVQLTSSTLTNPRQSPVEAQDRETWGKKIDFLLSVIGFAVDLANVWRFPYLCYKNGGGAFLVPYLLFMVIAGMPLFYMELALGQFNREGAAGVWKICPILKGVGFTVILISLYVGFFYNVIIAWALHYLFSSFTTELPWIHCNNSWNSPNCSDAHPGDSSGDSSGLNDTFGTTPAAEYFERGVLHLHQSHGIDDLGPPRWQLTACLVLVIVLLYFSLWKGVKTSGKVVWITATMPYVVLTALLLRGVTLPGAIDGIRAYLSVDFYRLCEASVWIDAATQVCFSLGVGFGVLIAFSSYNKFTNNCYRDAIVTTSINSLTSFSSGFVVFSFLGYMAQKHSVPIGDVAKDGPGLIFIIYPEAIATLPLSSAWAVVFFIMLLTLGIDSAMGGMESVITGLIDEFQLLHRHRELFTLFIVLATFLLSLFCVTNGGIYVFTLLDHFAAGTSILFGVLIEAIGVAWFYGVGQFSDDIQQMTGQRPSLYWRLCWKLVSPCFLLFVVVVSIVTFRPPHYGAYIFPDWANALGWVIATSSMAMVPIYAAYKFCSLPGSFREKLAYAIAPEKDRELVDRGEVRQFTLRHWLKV

DAT = target: T3, DAT (Homo sapiens, UniProt Q01959); assay: DAT radioligand binding with [3H]WIN35,428
T3 construct: expressed in transfected cells; host or cells: CHO (uptake)
T3 sequence (Q01959 whole entry, species assumed): as above
Procedure: (§1) Radioligand Binding. Affinity of the test compounds for SERT, NET, and DAT was determined in radioligand binding experiments with [^3H]imipramine, [^3]nisoxetine, and [^3H]WIN35,428, respectively, by WuXi AppTec (Hong Kong) Limited, under the conditions described in Table 15.

[8] = target: T4, norepinephrine transporter (NET) (Homo sapiens, UniProt P23975); assay: Fluorescent substrate uptake inhibition, NET; assay type: cell-based
T4 construct: expressed in transfected cells; host or cells: HEK293
T4 sequence (P23975 whole entry, species assumed): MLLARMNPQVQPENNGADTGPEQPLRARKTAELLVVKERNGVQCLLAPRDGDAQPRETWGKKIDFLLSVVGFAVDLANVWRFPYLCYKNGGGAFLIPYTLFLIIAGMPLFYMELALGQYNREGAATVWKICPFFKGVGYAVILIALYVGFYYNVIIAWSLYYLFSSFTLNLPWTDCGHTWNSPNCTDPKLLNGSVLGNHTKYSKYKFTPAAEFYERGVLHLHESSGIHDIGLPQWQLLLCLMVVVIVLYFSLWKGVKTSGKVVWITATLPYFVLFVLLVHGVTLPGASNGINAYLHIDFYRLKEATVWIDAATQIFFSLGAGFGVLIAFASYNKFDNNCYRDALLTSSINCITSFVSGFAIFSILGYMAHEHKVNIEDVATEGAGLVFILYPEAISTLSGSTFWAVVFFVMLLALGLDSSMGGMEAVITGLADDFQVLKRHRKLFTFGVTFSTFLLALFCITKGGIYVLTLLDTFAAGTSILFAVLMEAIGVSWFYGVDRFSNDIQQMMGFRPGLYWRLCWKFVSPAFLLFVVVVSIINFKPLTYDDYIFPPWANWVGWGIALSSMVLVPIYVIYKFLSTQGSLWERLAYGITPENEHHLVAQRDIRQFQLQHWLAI

[9] = target: MK-801 binding site of the N-methyl-D-aspartate receptor (NMDAR); assay: NMDAR radioligand binding with [3H]MK-801, Method B; set-up: species or system Sprague Dawley rat; conditions: MK-801 site, Method B, male Sprague Dawley rat cortex, 5.0 nM [3H]MK-801; read-out: NMDAR Ki ± SEM
Procedure: Radioligand Binding—Method B. Affinity of the test compounds for NMDAR was determined in radioligand binding experiments with [^3H]MK-801 by WuXi AppTec (Hong Kong) Limited, under the conditions described in Table 13.

SERT = target: T5, SERT (Homo sapiens, UniProt P31645); assay: SERT radioligand binding with [3H]imipramine
T5 construct: expressed in transfected cells; host or cells: HEK293
T5 sequence (P31645 whole entry, species assumed): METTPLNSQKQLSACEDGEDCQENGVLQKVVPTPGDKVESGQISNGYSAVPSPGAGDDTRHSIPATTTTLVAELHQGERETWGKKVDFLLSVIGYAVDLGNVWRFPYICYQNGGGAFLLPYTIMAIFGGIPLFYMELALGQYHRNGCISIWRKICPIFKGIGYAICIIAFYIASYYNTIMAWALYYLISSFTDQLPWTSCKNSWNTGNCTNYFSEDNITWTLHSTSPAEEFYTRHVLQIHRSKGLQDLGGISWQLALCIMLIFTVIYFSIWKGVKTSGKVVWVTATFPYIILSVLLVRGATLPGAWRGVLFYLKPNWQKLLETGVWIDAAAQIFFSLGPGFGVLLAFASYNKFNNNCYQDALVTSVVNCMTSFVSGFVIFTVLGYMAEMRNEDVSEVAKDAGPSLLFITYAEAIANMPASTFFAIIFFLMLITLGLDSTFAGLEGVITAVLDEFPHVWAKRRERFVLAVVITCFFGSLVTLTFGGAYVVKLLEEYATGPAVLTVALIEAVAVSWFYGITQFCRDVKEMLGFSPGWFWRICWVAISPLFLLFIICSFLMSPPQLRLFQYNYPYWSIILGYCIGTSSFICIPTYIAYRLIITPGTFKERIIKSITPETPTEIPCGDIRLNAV
Procedure: as §1

[10] = RLM stability (Low Activity); assay type: in vitro ADME, Sprague Dawley rats; conditions: male, Sprague Dawley, rat, liver microsomes, pH 7.4, Condition 1 (Low Activity), 0.50 mg protein/mL
In short: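 Pooled male Sprague Dawley rat liver microsomes (0.50 mg/mL) in PBS pH 7.4 with 1 mM MgCl2 and 1 mM NADPH; compound 1 μM, 1.0% solvent, 37° C. Six time points over 60 min, parent remaining by LC-MS/MS; kel, t1/2 and Clint from linear regression of ln(AUC) versus time.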

[11] = MLM stability (Low Activity); assay type: in vitro ADME, CD-1 mice; conditions: male, CD-1, mouse, liver microsomes, pH 7.4, Condition 1 (Low Activity), 0.50 mg protein/mL
In short: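 Pooled male CD-1 mouse liver microsomes (0.50 mg/mL) with 1 μM compound and 1 mM NADPH in 100 mM PBS pH 7.4 with 1 mM MgCl2, 37 °C, six time points over 60 min. Parent remaining by LC-MS/MS; kel, t1/2 and Clint from linear regression of ln(AUC) versus time.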

[12] = target: T6, serotonin transporter (SERT) (Homo sapiens, UniProt P31645); assay: Fluorescent substrate uptake inhibition, SERT; assay type: cell-based
T6 construct: expressed in transfected cells; host or cells: HEK293
T6 sequence (P31645 whole entry, species assumed): as above

NET = target: T7, NET (Homo sapiens, UniProt P23975); assay: NET radioligand binding with [3H]nisoxetine
T7 construct: expressed in transfected cells; host or cells: HEK293
T7 sequence (P23975 whole entry, species assumed): as the sequence (P23975 whole entry, species assumed) above
Procedure: as §1

[13] = calculated based on brain exposure
[14] = brain, 10 mg/kg iv, read-out: t1/2 (iv)
[15] = brain, 10 mg/kg po, read-out: t1/2 (po)
[16] = plasma, 10 mg/kg iv, read-out: AUC0-inf (iv) (converted)
[17] = plasma, 10 mg/kg iv, read-out: t1/2 (iv)
[18] = plasma, 10 mg/kg po, read-out: AUC0-inf (po) (converted)
[19] = plasma, 10 mg/kg po, read-out: t1/2 (po)
[20] = plasma, absolute oral bioavailability

Row | SMILES | half-life at 2 μM [1] | microsomal CLint at 2 μM [1] | AUC0-inf (iv) ([2]; brain, 10 mg/kg iv) | AUC0-inf (po) ([2]; brain, 10 mg/kg po) | F [2, 13] | half-life [2, 14] | Cmax ([2]; brain, 10 mg/kg po) | half-life [2, 15] | AUC(0-inf) [2, 16] | half-life [2, 17] | Cmax ([2]; plasma, 10 mg/kg po) | AUC(0-inf) [2, 18] | half-life [2, 19] | F [2, 20] | immobility time in FST (mice (forced swim test)) | half-life at 1 μM [3] | microsomal CLint at 1 μM [3] | also measured
1 | CCNC1(c2cccc(OC)c2)CCCCC1=O (racemic) [Compound 2rac] | 4.85 h | 6 µL/min/mg | 279,000 ng*min/g | 11,800 ng*min/g | 4% | 16.1 min | 420 ng/g | 16.6 min | 1100 ng·h/mL | 17.9 min | 135 ng/mL | 62.8 ng·h/mL | 14 min | 6% | reduced time immobile; also recorded: induced antidepressant-like effects | 199 min | 3 µL/min/mg | 
2 | CNC1(c2ccccc2OC)CCCCC1=O (racemic) [Compound 4rac] | 43.2 h | 1 µL/min/mg | 292,000 ng*min/g | 135,000 ng*min/g | 46% | 19.9 min | 1900 ng/g | 45.9 min | 1650 ng·h/mL | 20.6 min | 958 ng/mL | 850 ng·h/mL | 42.6 min | 51% | did not have effects | 819 min | 1 µL/min/mg | pKi [4]: 4.46
3 | CC(C)N[C@]1(c2ccccc2)CCCCC1=O [Compound 28S, (S)-2-(isopropylamino)-2-phenylcyclohexan-1-one] |  |  |  |  |  |  |  |  |  |  |  |  |  |  |  |  |  | inhibition at 10 µM [5]: -32.7%; half-life at 1 μM [6]: 76.6 min; microsomal CLint at 1 μM [6]: 18.1 µL/min/mg; pIC50 [7]: 5.89; inhibition at 10 µM ([7]; 10 μM, CHO cells expressing DAT): 58%; inhibitory activity at DAT ([7]; in words): significant inhibitory activity at DAT; pKi (DAT): 5.22; pIC50 [8]: 5.33; inhibition at 10 µM ([8]; 10 μM, HEK293 cells expressing NET): 48.7%; pKi [9]: 5.52; pKi (SERT): 4.91; half-life at 1 μM [10]: 18.9 min; microsomal CLint at 1 μM [10]: 73.4 µL/min/mg; half-life at 1 μM [11]: 14.8 min; microsomal CLint at 1 μM [11]: 94 µL/min/mg; pIC50 [12]: 5.07; inhibition at 10 µM ([12]; 10 μM, HEK293 cells expressing SERT): 22%; pKi (NET): 4.87
